Laboratory results reported in US20250026752A1, “POSITIVE ALLOSTERIC MODULATORS OF THE MUSCARINIC ACETYLCHOLINE RECEPTOR M4” (Vanderbilt University, priority 2021, published 2025).
Where two headings read alike, the source gives them in different places.

Molecular target: T1, human mAChR M4 (Homo sapiens, UniProt P08173)
T1 construct: expressed in transfected cells; host or cells: CHO-K1 (ATCC), stably expressing hM4 and Gqi5
T1 sequence (P08173 1-479): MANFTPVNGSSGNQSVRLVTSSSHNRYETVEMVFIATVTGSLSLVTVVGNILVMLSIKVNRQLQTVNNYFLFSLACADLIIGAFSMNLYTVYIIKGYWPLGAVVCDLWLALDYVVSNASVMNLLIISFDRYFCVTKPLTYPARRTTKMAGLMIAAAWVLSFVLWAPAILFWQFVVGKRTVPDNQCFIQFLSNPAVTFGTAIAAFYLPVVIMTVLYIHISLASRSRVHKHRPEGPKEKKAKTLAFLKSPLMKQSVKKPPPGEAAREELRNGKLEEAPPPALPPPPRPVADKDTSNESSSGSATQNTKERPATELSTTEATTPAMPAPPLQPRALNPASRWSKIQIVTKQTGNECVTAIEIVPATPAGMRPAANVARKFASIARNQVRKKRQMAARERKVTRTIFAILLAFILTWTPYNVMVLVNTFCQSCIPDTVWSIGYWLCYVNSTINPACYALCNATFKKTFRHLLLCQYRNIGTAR
Experiment: mAChR M4 cell-based functional assay: calcium flux (Fluo-4, FDSS), positive allosteric modulator activity on the EC20 acetylcholine response, hM4-Gqi5 CHO-K1 cells
Set-up: Emax: dose or concentration left out as unconfirmed
Conditions: for Emax at 30 µM: CHO-K1, human M4, % ACh maximum at 30 μM; for EC50: PAM activity on EC20 acetylcholine response, calcium flux
Procedure, shortened: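 CHO-K1 cells stably expressing human M4 with chimeric Gqi5, loaded with Fluo-4 AM for 50 min at 37° C. Compounds (11-point, 1:3 dilutions) added first, then an acetylcholine EC20 at 144 s; calcium read on FDSS at 1 Hz. EC50 is the half-maximal increase above the EC20 baseline, four-parameter logistic fit.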

[1] = human M4, read-out: Human M4 EC50

Compound	Emax at 30 µM [%]	EC50 [1] [µM]	Emax (CHO-K1) [%]	EC50 (Human M4 EC50, human M4) [µM]
Cc1ncc(-c2cnc3c(c2)CN(c2nc(C(F)(F)F)nc4ccc(F)cc24)CC3)s1 [Compound 66, 5-[6-[6-fluoro-2-(trifluoromethyl)quinazolin-4-yl]-7,8-dihydro-5H-1,6-naphthyridin-3-yl]-2-methyl-thiazole]	35	0.81	–	–
Cc1ccc(-c2cnc3c(c2)CN(c2nc(C(F)(F)F)nc4ccc(F)cc24)CC3)cn1 [Compound 67, 6-fluoro-4-[3-(6-methyl-3-pyridyl)-7,8-dihydro-5H-1,6-naphthyridin-6-yl]-2-(trifluoromethyl)quinazoline]	55	0.66	–	–
Fc1ccc2ncnc(N3CCc4ncc(-n5cccn5)cc4C3)c2c1 [Compound 68, 6-fluoro-4-(3-pyrazol-1-yl-7,8-dihydro-5H-1,6-naphthyridin-6-yl)quinazoline]	–	–	88	0.22
Cc1nc(N2CCc3ncc(Nc4cccnc4F)cc3C2)c2cc(Cl)ccc2n1 [Compound 72, 6-(6-chloro-2-methyl-quinazolin-4-yl)-N-(2-fluoro-3-pyridyl)-7,8-dihydro-5H-1,6-naphthyridin-3-amine]	84	0.49	–	–
COc1ccc2ncnc(N3CCc4ncc(N5CCOc6ncccc65)cc4C3)c2c1 [Compound 79, 1-[6-(6-methoxyquinazolin-4-yl)-7,8-dihydro-5H-1,6-naphthyridin-3-yl]-2,3-dihydropyrido[2,3-b][1,4]oxazine]	105	0.25	–	–
COc1ccc2ncnc(N3CCc4ncc(Nc5ccnn5C)cc4C3)c2c1 [Compound 80, 6-(6-methoxyquinazolin-4-yl)-N-(2-methylpyrazol-3-yl)-7,8-dihydro-5H-1,6-naphthyridin-3-amine]	98	0.5	–	–
COc1ccc2ncnc(N3CCc4ncc(Nc5cccnc5F)cc4C3)c2c1 [Compound 81, N-(2-fluoro-3-pyridyl)-6-(6-methoxyquinazolin-4-yl)-7,8-dihydro-5H-1,6-naphthyridin-3-amine]	95	0.46	–	–
Cc1nc(N2CCc3ncc(N4CCCn5nccc54)cc3C2)c2cc(Cl)ccc2n1 [Compound 84]	114	0.23	–	–
Fc1ccc2nc(Cl)nc(N3CCc4ncc(N5CCCn6nccc65)cc4C3)c2c1 [Compound 87, 2-chloro-4-[3-(6,7-dihydro-5H-pyrazolo[1,5-a]pyrimidin-4-yl)-7,8-dihydro-5H-1,6-naphthyridin-6-yl]-6-fluoro-quinazoline]	110	0.19	–	–
Fc1ncccc1Nc1cnc2c(c1)CN(c1nc(Cl)nc3ccc(Cl)cc13)CC2 [Compound 88, 6-(2,6-dichloroquinazolin-4-yl)-N-(2-fluoro-3-pyridyl)-7,8-dihydro-5H-1,6-naphthyridin-3-amine]	103	1.07	–	–
Clc1ccc2nc(Cl)nc(N3CCc4ncc(N5CCCn6nccc65)cc4C3)c2c1 [Compound 89, 2,6-dichloro-4-[3-(6,7-dihydro-5H-pyrazolo[1,5-a]pyrimidin-4-yl)-7,8-dihydro-5H-1,6-naphthyridin-6-yl]quinazoline]	109	0.25	–	–

Further lines, with some results ahead:

Emax at 30 µM [%]	EC50 [1] [µM]	Compound	Emax (CHO-K1) [%]	EC50 (Human M4 EC50, human M4) [µM]
71	0.12	Fc1ccc2ncnc(N3CCc4ncc(N5CCC(C(F)(F)F)n6nccc65)cc4C3)c2c1 (stereo not drawn) [Compound 69, 6-fluoro-4-[3-[7-(trifluoromethyl)-6,7-dihydro-5H-pyrazolo[1,5-a]pyrimidin-4-yl]-7,8-dihydro-5H-1,6-naphthyridin-6-yl]quinazoline]	–	–
85	0.13	Cc1nc(N2CCc3ncc(Nc4cccnc4F)cc3C2)c2cc(F)ccc2n1 [Compound 70, 6-(6-fluoro-2-methyl-quinazolin-4-yl)-N-(2-fluoro-3-pyridyl)-7,8-dihydro-5H-1,6-naphthyridin-3-amine]	–	–
82	0.14	Fc1ncccc1Nc1cnc2c(c1)CN(c1ncnc3ccc(Cl)cc13)CC2 [Compound 71, 6-(6-chloroquinazolin-4-yl)-N-(2-fluoro-3-pyridyl)-7,8-dihydro-5H-1,6-naphthyridin-3-amine]	–	–
97	0.09	Cc1nc(N2CCc3ncc(N4CCCn5nccc54)cc3C2)c2cc(F)ccc2n1 [Compound 73, 4-[3-(6,7-dihydro-5H-pyrazolo[1,5-a]pyrimidin-4-yl)-7,8-dihydro-5H-1,6-naphthyridin-6-yl]-6-fluoro-2-methyl-quinazoline]	–	–
82	0.01	Fc1ccc2ncnc(N3CCc4ncc(N5CCCn6nccc65)cc4C3)c2c1 [Compound 74, 4-[3-(6,7-dihydro-5H-pyrazolo[1,5-a]pyrimidin-4-yl)-7,8-dihydro-5H-1,6-naphthyridin-6-yl]-6-fluoro-quinazoline]	–	–
100	0.03	Cn1nccc1Nc1cnc2c(c1)CN(c1ncnc3ccc(F)cc13)CC2 [Compound 75, 6-(6-fluoroquinazolin-4-yl)-N-(2-methylpyrazol-3-yl)-7,8-dihydro-5H-1,6-naphthyridin-3-amine]	–	–
98	0.03	Fc1ccc2ncnc(N3CCc4ncc(N5CCOc6ncccc65)cc4C3)c2c1 [Compound 76, 1-[6-(6-fluoroquinazolin-4-yl)-7,8-dihydro-5H-1,6-naphthyridin-3-yl]-2,3-dihydropyrido[2,3-b][1,4]oxazine]	–	–
127	0.07	COc1ccc2ncnc(N3CCc4ncc(N5CCCn6nccc65)cc4C3)c2c1 [Compound 77, 4-[3-(6,7-dihydro-5H-pyrazolo[1,5-a]pyrimidin-4-yl)-7,8-dihydro-5H-1,6-naphthyridin-6-yl]-6-methoxy-quinazoline]	–	–
129	0.03	Cc1ccc2ncnc(N3CCc4ncc(N5CCCn6nccc65)cc4C3)c2c1 [Compound 78, 4-[3-(6,7-dihydro-5H-pyrazolo[1,5-a]pyrimidin-4-yl)-7,8-dihydro-5H-1,6-naphthyridin-6-yl]-6-methyl-quinazoline]	–	–
104	0.07	Fc1ccc2ncnc(N3CCc4ncc(Nc5cccnc5F)cc4C3)c2c1 [Compound 82, N-(2-fluoro-3-pyridyl)-6-(6-fluoroquinazolin-4-yl)-7,8-dihydro-5H-1,6-naphthyridin-3-amine]	–	–
108	0.02	Clc1ccc2ncnc(N3CCc4ncc(N5CCCn6nccc65)cc4C3)c2c1 [Compound 83, 6-chloro-4-[3-(6,7-dihydro-5H-pyrazolo[1,5-a]pyrimidin-4-yl)-7,8-dihydro-5H-1,6-naphthyridin-6-yl]quinazoline]	–	–
85	0.03	Cc1nc(N2CCc3ncc(N4CCOc5ncccc54)cc3C2)c2cc(F)ccc2n1 [Compound 85, 1-[6-(6-fluoro-2-methyl-quinazolin-4-yl)-7,8-dihydro-5H-1,6-naphthyridin-3-yl]-2,3-dihydropyrido[2,3-b][1,4]oxazine]	–	–
91	0.03	Cc1nc(N2CCc3ncc(Nc4ccnn4C)cc3C2)c2cc(F)ccc2n1 [Compound 86, 6-(6-fluoro-2-methyl-quinazolin-4-yl)-N-(2-methylpyrazol-3-yl)-7,8-dihydro-5H-1,6-naphthyridin-3-amine]	–	–
